# Test results reported in US5310745A, “Antiviral compounds” (priority 1992, dated 1994).
# Tests used:
# [1] = Pharmacokinetic and metabolism study, rat; type: in vivo
# Procedure: (§1) The parent tetrabutyrate compound consequently serves as an antivirally effective and useful pro-drug of the latter compound to which it is metabolized in the gut. […] The parent pro-drug was not detected. […] The oral bioactivity of the metabolite compound, measured as [^14 C]-metabolite compound, was determined to be between 28% and 50% in the Rhesus monkey, depending on the vehicle used (e.g., 0.5% methyl cellulose and 0.1% polysorbate in water). […] The blood levels of the metabolite compound, measured as part of a long term SIV infected monkey efficacy study, following oral dosing (high dose 750 mg/kg, low dose 250 mg/kg, administered every eight hours) with the pro-drug, yielded mean trough (cmin) plasma blood levels of the metabolite compound at eight hours post dosing of approximately 10 μg/mL and 6.8 μg/mL for the high and low doses, respectively.
# [2] = tested on: Sheep choroid plexus (SCP) cells; experiment: Toxicity of compounds in control wells without virus, graded morphologically; type: cell-based; set-up: key: 0: no toxicity; 4: total cell lysates; settings: 0 to 4 scale, Table 1
# Procedure: (§2) Sheep choroid plexus (SCP) cells were obtained from American Type Culture Collection (ATCC) catalogue number CRL 1700 and were routinely passaged in vitro in Dulbecco's Modified Eagles (DME) medium supplemented with 20% fetal bovine serum (FBS). SCP cells were passaged once per week at a 1:2 or 1:3 split ratio. Visna was titrated by plaque assay in six-well plates. Virus pools were stored at -70° C.
# (§3) SCP cells were cultured in 6-well plates to confluence. Wells were washed two times with serum free Minimal Essential Medium (MEM) to remove FBS. 0.2 ml of virus was added per well in MEM supplemented with 4 mM glutamine and gentamycin. After 1 hour adsorption, the virus was aspirated from each well. The appropriate concentration of each compound in 5 ml of Medium 199 (M-199) supplemented With 2% lamb serum, 4 mM glutamine, 0.5% agarose and gentamycin was added to each well. Cultures were incubated at 37° C. in a humidified 5% CO2 incubator for 3-4 weeks. To terminate the test: cultures were fixed in 10% formalin, the agar removed, the monolayers stained with 1% crystal violet and plaques counted. Each compound concentration was run in triplicate. […] 0 is no toxicity observed while 4 is total lysing of the cell monolayer.
# Diarrheagenic effect = type: in vivo, monkey; settings: normal, uninfected monkeys
# visna virus = experiment: Plaque reduction assay, inhibition of visna virus in vitro; type: cell-based; set-up: key to Antiviral Activity: A: active compound; I: inactive compound; settings: Table 1
# Excerpt: Visna virus, a lentivirus genetically very similar to the AIDS virus, is pathogenic for sheep and goats. See Sonigo et al., Cell 42, 369-382 (1985); Haase, Nature 322, 130-136 (1986). Inhibition of visna virus replication in vitro as a useful model for human immunodeficiency virus (HIV) and its inhibition by test compounds has been described by Franket al., Antimicrobial Agents and Chemotherapy 31 (9), 1369-1374 (1987). The N-butyl derivative of 1,5-dideoxy-1,5-imino-D-glucitol, also referred to as n-butyl-deoxynojirimycin (N-Bu-DNJ), was used as a control standard for comparison with various novel compounds of this invention.
# Various compounds as prepared above were tested for inhibition of visna virus in vitro in a plaque reduction assay as follows:
# as §2, §3
# sucrase = experiment: Sucrase inhibition locally in the gut; type: in vivo, monkey; settings: normal, uninfected monkeys
# [3] = Pharmacokinetic and metabolism study, Rhesus monkey; type: in vivo
# Procedure: as §1
# [4] = tested on: Sheep choroid plexus (SCP) cells; experiment: Toxicity of compounds in control wells without virus, graded morphologically; type: cell-based; settings: 0.1 mM; 0 to 4 scale; Table 1
# Procedure: as §2, §3
# [5] = oral [14C] pro-drug, Rhesus monkey
structure (smiles),measurement,setting,value
"CCCCN1C[C@H](OC(=O)CCC)[C@@H](OC(=O)CCC)[C@H](OC(=O)CCC)[C@H]1COC(=O)CCC [Example 16, 1,5-(Butylimino)-1,5-dideoxy-D-glucitol, tetrabutyrate]",metabolic transformation in vivo,[1],"controlled, sustained levels of a metabolite"
same,parent pro-drug in plasma,[1]; oral [14C] pro-drug,not detected
same,radiolabeled compound in plasma after oral pro-drug,[1]; oral [14C] pro-drug,yielded only [^14 C]SC-metabolite compound in the plasma
same,parent pro-drug in portal plasma,"[1]; oral, portal plasma",no parent pro-drug detected
same,Toxicity,[2]; 0.001 mM,0
same,Toxicity,[2]; 0.01 mM,0
same,Toxicity,[2]; 1.0 mM,4
same,diarrheagenic results,Diarrheagenic effect,negative diarrheagenic results
same,Antiviral Activity,visna virus; 0.001 mM,A
same,Antiviral Activity,visna virus; 0.01 mM,A
same,Antiviral Activity,visna virus; 0.1 mM,A
same,Antiviral Activity,visna virus; 1.0 mM,Toxic
same,inhibition of sucrase locally in the gut,sucrase,does not significantly inhibit sucrase locally in the gut
same,metabolic transformation in vivo,[3]; Rhesus monkey,"controlled, sustained levels of a metabolite"
same,"metabolic profiles of either radiolabeled compound (pro-drug, metabolite)","[3]; monkey, oral, plasma and urine",the same in plasma and urine
same,parent pro-drug in plasma,[3]; [5],not detected
same,radiolabeled compound in plasma after oral pro-drug,[3]; [5],yielded only [^14 C]SC-metabolite compound in the plasma
same,Toxicity,[4],1
